These results are taken from article PMC8778133 (Pharmaceutics, 2021).

In brackets after ≈: the same amount, converted by molar mass. Several values for one entry are separate records, joined by “and”; a condition that tells them apart may be missing. Equal entries are not always repeated. Where two headings read alike, the source gives them in different places.

Data set [1] is described as follows: pKa determination by potentiometric titration. It counts as physicochemical. The settings on record: for pKa: 0.15 M KCl aqueous solution. On the procedure:
The sample was pre-alkalinized to pH 12 with 0.5 M standardized KOH. Then, it was titrated with standardized 0.5 M HCl. All titrations were carried out at 0.15 M ionic strength and a temperature of 25 °C, under a nitrogen atmosphere. […] The Debye–Hückel equation was used to obtain the thermodynamic pKa values.

A short description of data set [2]: pH of saturated Norfloxacin solutions in dissolution media (pHx=0 effect test). Format: physicochemical. The settings on record: for pH of saturated solution after 24 h: agitation. As to the method: However, instead of adding a Norfloxacin tablet, the powder was directly weighted into the vials until saturated solutions of Norfloxacin were obtained. Then, the solutions were allowed to stand under agitation at 25 °C for 24 h. After this, the pH of the solutions was measured again. […] This effect is more evident for the API dissolution than for the cocrystal because the amount of API released in the cocrystal is lower compared to the pure API.

A short description of data set [3]: Solubility by the shake-flask method. The settings on record: for solubility at 24 h: universal buffer. It counts as physicochemical.
Experimental: A universal buffer composed of 75 mM trifluoroacetic acid, 25 mM acetic acid, and 25 mM ethylenediamine, adjusted with 1M sodium hydroxide up to pH 7.5, was used (ionic strength, I = 0.1 M). Samples were prepared by adding a weighted amount of solid (enough to obtain saturated solutions) to 2 mL of the buffered solution. After this, solutions were shaken at a controlled temperature (25.0 ± 0.2 °C) for 24 h, but, after 4 h of agitation, the pH was checked and, if necessary, readjusted to the initial value with small amounts of 1 M hydrochloric acid or 1 M sodium hydroxide solution. After the 24 h stirring, samples were left to stand for equilibration for 24 more hours [32, 33, 34]. The pH was measured and phases separated by centrifugation in a Rotanta 460RS centrifuge from Hettich Lab Technology (Tuttlingen, Germany), at a controlled temperature (25 °C) and 3500 rpm for 30 min.
The remaining solid was dried under vacuum for 30 min and stored at 4 °C until XRPD analysis. […] A Shimadzu (Kyoto, Japan) liquid chromatograph, equipped with two LC-10AD pumps and a SPD-10AV detector, was used. Temperature was controlled at 25.0 ± 0.1 °C with a CTO-10AS column oven. The column was a Symmetry C18, with 5 μm particle size and dimensions of 4.6 × 150 mm from Waters (Milford, MA, USA). Mobile phase was composed of 20 mM phosphate buffer at pH 7 (A) and acetonitrile (B). Elution was in gradient mode (time (min), %B: 0,3; 1,3; 5,25; 10,25; 12,3; 15,3). […] To quantify, six standard solutions were prepared in the linear range (5–60 mgL^−1 for both compounds). Standards were dissolved in an acetonitrile/water mixture at a proportion of 25/75 (v/v). In a first attempt, saturated supernatants were injected directly, and, when necessary, they were appropriately diluted in water to ensure that they fit within the range of calibration.
Details of data set [4]: method as in doi:10.1016/0378-5173(90)90130-V, PMID 16307530. The settings on record: cited from earlier work.
A short description of data set [5]: Intrinsic dissolution rate, small-scale dissolution assay at single GIT pH values. It counts as physicochemical. The settings on record: for % Dissolved at t = 30 min / Dissolution Rate: SD in brackets; for Dissolution Rate: fitting of Equation (1), kdS. On the procedure: Dissolution tests were performed with a small-scale dissolution assay installed in the GlpKaTM titrator. […] Then, 1.5 mL of 0.125 M acetate-phosphate buffer at pH 1.6 was introduced into the vial without wetting the tablet surface. […] The final volume was 15 mL. UV-visible absorption spectra were recorded every 30 s with a fiber-optic probe immersed in the solution. […] Spectral regions where the signal was saturated (A > 1.5) were discarded. Dissolution rate was obtained through the fitting of the first-order Noyes-Whitney exponential equation to the data:(1) [[…]0)) In this equation, [X]t is the weight (g) of compound in solution at a given time (min); […] Dissolution rate is calculated through a refinement process in which S, kd and t0 optimal values are obtained by minimizing the root mean square deviation between the modeled concentrations and the measured ones.

Data set [6] can be described thus: 4-sector pH dissolution test (pH stepped from 2.0 to 7.4). It counts as physicochemical. The settings on record: 4-sector test. On the procedure: To perform the 4-sector dissolution rate determinations, the same procedure was followed, but, after adjusting the initial pH to 2.0 and monitoring dissolution for 30 min at this pH, the pH was automatically raised to the next value by addition of KOH. Then, dissolution was monitored again for 30 more minutes. This stepping procedure was repeated until dissolution in the four sectors was covered.

Where [7] appears, read: water, 25 °C and 0 ionic strength, potentiometry, given as ref 37 (authors' unpublished work), read-out: pKa (first).

The term pKa denotes the pH at which an ionisable group is half protonated. On to `Oc1cccc(O)c1` [Resorcinol, resorcinol], for which the pKa in data set [1] (setting [7]) is 9.47 ± 0.02; in data set [1] (water, 25 °C and 0 ionic strength, potentiometry, given as ref 37 (authors' unpublished work), read-out: pKa (second)), 11.6 ± 0.04.
By solubility is commonly meant the concentration that dissolves in the medium under given conditions. In the case of `CCn1cc(C(=O)O)c(=O)c2cc(F)c(N3CCNCC3)cc21` [Norfloxacin], the “pH of saturated solution after 24 h” value came to 5.8 in data set [2] (dissolution medium initially at pH 4.0, 25 °C); 6.2 in data set [2] (dissolution medium initially at pH 5.5, 25 °C); 7.4 in data set [2] (dissolution medium initially at pH 7.4, 25 °C). The “positive pH increment” value worked out at 1.8 units in data set [2] (initial pH 4.0), 0.7 units in data set [2] (initial pH 5.5) and 0 units in data set [2] (initial pH 7.4). Further, the “solid phase obtained after the shake-flask experiments (XRPD)” value in data set [3] (aqueous buffer, 24 h stirring + 24 h standing, 25 °C) was “tetrahydrate”. Besides, the “intrinsic solubility of the zwitterionic form (S0)” value in data set [3] (calculated from shake-flask solubility and Equation (7), pKa' at I = 0.1 M, corresponds to tetrahydrate form) was 0.319 ± 0.019 mg/mL. Also, the solubility at 24 h was 0.394 ± 0.018 mg/mL (≈ 1230 µM) in data set [3] (pH 7.25, shake-flask, 25 °C, I = 0.1 M, final pH 7.25, n = 3, solid transformed to tetrahydrate, read-out: solubility); 0.32 ± 0.02 mg/mL (≈ 1000 µM) in data set [3] (pH 7.5, calculated from shake-flask solubility and Equation (7), pKa' at I = 0.1 M, corresponds to tetrahydrate form, read-out: intrinsic solubility of the zwitterionic form (S0)). In addition, in data set [4], the oral bioavailability is listed as ~ 40%. In addition, the “Final Solid Form” value in data set [5] (after dissolution at pH 2.0), in data set [5] (after dissolution at pH 4.0), in data set [5] (after dissolution at pH 5.5) and in data set [5] (after dissolution at pH 7.4) was “Tetrahydrate” each time. Also, the “% Dissolved at t = 30 min” value in data set [5] (pH 2.0) is 100% and 101.2 (6.3) %; in data set [5] (pH 2.0, listed as API), “complete”; in data set [5] (pH 4.0) it was 71% and 71.3 (6.9) %; in data set [5] (pH 5.5) it was 23% and 23.0 (5.2) %; in data set [5] (pH 7.4) it was 9.4 (1.0) %; in data set [5] (pH 7.4, listed as API), 7%. The “Dissolution Rate” value is 4.16 (0.73) μg min^−1 in data set [5] (pH 2.0), 0.79 (0.03) μg min^−1 in data set [5] (pH 4.0), 0.19 (0.02) μg min^−1 in data set [5] (pH 5.5) and 0.06 (0.01) μg min^−1 in data set [5] (pH 7.4). For the same compound, the pKa in data set [1] (setting [7]) was found to be 6.35 ± 0.04. Further, in data set [1] (pH 5.5, species distribution (Figure S12)), the “percentage of compound in the zwitterionic form” value is “around 12%”. Besides, the “maximum percentage of the zwitterionic form” value in data set [1] (pH 7.5, species distribution from pKa values (Figure S12)) was “around 90%”. Besides, the “pKa (second)” value in data set [1] (water, 25 °C and 0 ionic strength, potentiometry, given as ref 37 (authors' unpublished work)) is 8.80 ± 0.04.
Take `CCn1cc(C(=O)O)c(=O)c2cc(F)c(N3CCNCC3)cc21.Oc1cccc(O)c1` [Norfloxacin–resorcinol cocrystal]: in data set [6] (after pH increased to 7.4 (sudden precipitation)), the “percentage of the API remaining in the solution” value was determined as 80%. Also, in data set [6] (from pH 2.0 to pH 5.5, 30 min at each pH), the “percentage of Norfloxacin in the solution” value is about 90%. Moreover, the “dissolution in the first sector” value in data set [6] (pH 2.0, 30 min) is listed as “almost complete dissolution”. For the same compound, the “Final Solid Form” value in data set [5] (after dissolution at pH 2.0), in data set [5] (after dissolution at pH 4.0), in data set [5] (after dissolution at pH 5.5) and in data set [5] (after dissolution at pH 7.4) was “Monohydrate” each time. Also, the “% Dissolved at t = 30 min” value in data set [5] (pH 2.0) is listed as 94.4 (1.1) %; in data set [5] (pH 4.0), 91.2 (0.9) %; in data set [5] (pH 5.5), 48.0 (12.5) %; in data set [5] (pH 5.5, listed as cocrystal), 48%; in data set [5] (pH 7.4) it was 9.6 (1.0) %; in data set [5] (pH 7.4, listed as cocrystal), 7%. Besides, the “Dissolution Rate” value is given as 2.53 (1.63) μg min^−1 in data set [5] (pH 2.0), 0.70 (0.15) μg min^−1 in data set [5] (pH 4.0), 0.33 (0.04) μg min^−1 in data set [5] (pH 5.5) and 0.19 (0.10) μg min^−1 in data set [5] (pH 7.4).
